{"source": "patent US8399515B2", "about": "“Five and fifteen carbon fatty acids for treating metabolic disorders and as nutritional supplements” (Baylor Research Institute, priority 2003, dated 2013)", "key": {"[1]": {"system": "fibroblasts from patients with L-3-hydroxy-acyl-CoA dehydrogenase (LCHAD) deficiency", "experiment": "Propionylcarnitine from oxidation of odd-carbon fatty acids in LCHAD fibroblasts", "format": "cell-based, human", "conditions": "LCHAD fibroblasts, one line per patient, 72 hours incubation", "procedure": "(§1) Fibroblasts obtained from patients with inherited defects of mitochondrial fat oxidation were cultured in the presence of omega deuterated odd-carbon numbered fatty acids, as described in Roe, C. R., Sweetman, L., Roe, D. S., David, F., Brunengraber, H., “Effective Dietary Treatment of Cardiomyopathy & Rhabdomyolysis in Long-Chain Fat Oxidation Disorders using an Anaplerotic Odd-Chain Triglyceride,” J. Clin. Invest. 110 (2): 259-269 (2002).\n(§2) The data in Table 1 represents testing of cultured fibroblasts derived from ten patients afflicted with Very-long-chain acyl-CoA dehydrogenase (VLCAD) deficiency (six patients with the severe cardiac form and four with the non-cardiac milder phenotype), two patients with Mitochondrial Trifunctional Protein (MTP) deficiency, five patients having L-3-hydroxy-acyl-CoA dehydrogenase (LCHAD) deficiency and three patients with Short-chain acyl-CoA dehydrogenase (SCAD) deficiency."}, "[2]": {"system": "fibroblasts from patients with Short-chain acyl-CoA dehydrogenase (SCAD) deficiency", "experiment": "Propionylcarnitine from oxidation of odd-carbon fatty acids in SCAD fibroblasts", "format": "cell-based, human", "conditions": "SCAD fibroblasts, one line per patient, 72 hours incubation", "procedure": "as §1, §2"}, "[3]": {"system": "fibroblasts from patients with Very-long-chain acyl-CoA dehydrogenase (VLCAD) deficiency, severe cardiac form", "experiment": "Propionylcarnitine from oxidation of odd-carbon fatty acids in VLCAD (cardiac) fibroblasts", "format": "cell-based, human", "conditions": "VLCAD cardiac fibroblasts, one line per patient, 72 hours incubation", "procedure": "as §1, §2"}, "[4]": {"system": "control / normal fibroblasts", "experiment": "Fate of odd-carbon fatty acids in control (normal) fibroblasts", "format": "cell-based, human", "parameters": "*C3 acylcarnitine / *C5 acylcarnitine / *C7 acylcarnitine / *C9 acylcarnitine / *C11 acylcarnitine / *C13 acylcarnitine / *C15 acylcarnitine: unit not given here", "conditions": "for Propionylcarnitine from odd carbon precursor: NORMAL fibroblasts", "procedure": "Fibroblasts obtained from patients with inherited defects of mitochondrial fat oxidation were cultured in the presence of omega deuterated odd-carbon numbered fatty acids, as described in Roe, C. R., Sweetman, L., Roe, D. S., David, F., Brunengraber, H., “Effective Dietary Treatment of Cardiomyopathy & Rhabdomyolysis in Long-Chain Fat Oxidation Disorders using an Anaplerotic Odd-Chain Triglyceride,” J. Clin. Invest. 110 (2): 259-269 (2002). […]"}, "[5]": {"system": "MCAD-deficient fibroblasts", "experiment": "Fate of odd-carbon fatty acids in MCAD-deficient fibroblasts", "format": "cell-based, human", "parameters": "*C3 acylcarnitine / *C5 acylcarnitine / *C7 acylcarnitine / *C9 acylcarnitine / *C11 acylcarnitine / *C13 acylcarnitine / *C15 acylcarnitine: unit not given here", "conditions": "for *C3 acylcarnitine / *C5 acylcarnitine / *C7 acylcarnitine / *C9 acylcarnitine: MCAD fibroblasts, N 4", "procedure": "as §1\nFibroblasts from four patients with MCAD deficiency and one heterozygote (carrier) indicate that odd-carbon fatty acids containing more than seven carbons can not be effectively used in that disease. […]"}, "[6]": {"system": "fibroblasts from patients with VLCAD deficiency, non-cardiac milder phenotype", "experiment": "Propionylcarnitine from oxidation of odd-carbon fatty acids in VLCAD (non-cardiac) fibroblasts", "format": "cell-based, human", "conditions": "VLCAD non-cardiac fibroblasts, one line per patient, 72 hours incubation", "procedure": "as §1, §2"}, "VLCAD patient": {"system": "VLCAD patient", "experiment": "Meal test with triheptanoin or tripentanoin in a VLCAD patient", "format": "in vivo, human", "parameters": "Myristenoylcarnitine Level: unit not given here", "conditions": "for Myristenoylcarnitine Level / Propionylcarnitine Level: blood", "text": "(§3) A VLCAD patient and an SCAD patient, both of whom had gastrostomy sites for enteral administration, each were provided with separate meals containing equimolar amounts of triheptanoin (C7) and tripentanoin (C5) at different times on the same day. Each patient was given the amount in 1 of 4 daily meals equivalent to a diet of 3 gms/Kg/day or about 30% of total Kcal as the triglyceride. Serial blood samples were obtained hourly and individual urines were collected at baseline and during the meal.\n(§4) The patient with VLCAD (FIG. 3) was monitored over a 3 hour interval and the SCAD patient was monitored for 4 hours after beginning the meal. […] One way the VLCAD patient was monitored was for myristenoylcamitine (cis-5-C14:1), which reflects oxidation of oleate and is therefore an indication of ongoing lipolysis during the meal tests (it is not derived from either C7 or C5). […] These changes are not observed with even-carbon triglycerides."}, "[7]": {"system": "fibroblasts from MCAD heterozygote (carrier)", "experiment": "Fate of odd-carbon fatty acids in MCAD carrier fibroblasts", "format": "cell-based, human", "parameters": "unit not given here", "procedure": "as §1\nFibroblasts from four patients with MCAD deficiency and one heterozygote (carrier) indicate that odd-carbon fatty acids containing more than seven carbons can not be effectively used in that disease. […] That any C3 was produced is presumably due to overlapping"}, "[8]": {"system": "fibroblasts from patients with Mitochondrial Trifunctional Protein (MTP) deficiency", "experiment": "Propionylcarnitine from oxidation of odd-carbon fatty acids in MTP fibroblasts", "format": "cell-based, human", "conditions": "MTP fibroblasts, one line per patient, 72 hours incubation", "procedure": "as §1, §2"}, "SCAD patient": {"system": "SCAD patient", "experiment": "Meal test with triheptanoin or tripentanoin in a SCAD patient", "format": "in vivo, human", "text": "as §3, §4\nThe second patient with SCAD deficiency (FIG. 4) had been receiving the triheptanoin diet for more than 2 years. This disorder is due to an inherited deficiency of butyryl-CoA dehydrogenase (SCAD) and is known to oxidize even carbon fatty acids of 4-6 carbon chain length.\nIn FIG. 4, C7-C3 represents the blood levels of C3 derived from C7; and C5-C3 represents the blood levels of C3 derived from C5, C7-C5 represents blood levels of pentanoylcarnitine (C5) derived from C7 meals and C5-C5 represents blood levels of pentanoylcarnitine (C5) derived from C5 meals. […] C7-C4 and C5-C4 represent the levels of the disease-specific acylcarnitine (butyrylcarnitine [C4]) observed in SCAD deficiency. […] This increased quantity of C3 corresponds to those observed for SCAD deficiency in the fibroblast studies above shown in Table 1."}}, "note": "Several values for one entry are separate records, joined by “and”; a condition that tells them apart may be missing. Equal entries are not always repeated."}
{"smiles": "CCCCCCC(=O)O", "note": "[C7, heptanoate, reference compound]", "values": [{"measurement": "Propionylcarnitine from oxidation of fatty acid", "setting": "[1]", "value": "53.2 nmol/mg Protein/72 hours and 23.5 nmol/mg Protein/72 hours and 24.0 nmol/mg Protein/72 hours and 10.6 nmol/mg Protein/72 hours and 22.7 nmol/mg Protein/72 hours"}, {"measurement": "Propionylcarnitine from oxidation of fatty acid", "setting": "[2]", "value": "57.7 nmol/mg Protein/72 hours and 32.4 nmol/mg Protein/72 hours and 39.2 nmol/mg Protein/72 hours"}, {"measurement": "Propionylcarnitine from oxidation of fatty acid", "setting": "[3]", "value": "28.7 nmol/mg Protein/72 hours and 13.0 nmol/mg Protein/72 hours and 44.5 nmol/mg Protein/72 hours and 17.8 nmol/mg Protein/72 hours and 20.4 nmol/mg Protein/72 hours and 25.0 nmol/mg Protein/72 hours"}, {"measurement": "*C3 acylcarnitine", "setting": "[4]; CONTROL MEAN, N = 4", "value": 24.3}, {"measurement": "*C5 acylcarnitine", "setting": "[4]; CONTROL MEAN, N = 4", "value": 1.3}, {"measurement": "*C7 acylcarnitine", "setting": "[4]; CONTROL MEAN, N = 4", "value": 0.4}, {"measurement": "Propionylcarnitine from odd carbon precursor", "setting": "[4]", "value": 24.3, "unit": "nmol/mg Protein/72 hours"}, {"measurement": "*C3 acylcarnitine", "setting": "[5]; Maximum", "value": 15.4}, {"measurement": "*C5 acylcarnitine", "setting": "[5]; Maximum", "value": 1.8}, {"measurement": "*C7 acylcarnitine", "setting": "[5]; Maximum", "value": 12.0}, {"measurement": "*C3 acylcarnitine", "setting": "[5]; Mean", "value": 8.3}, {"measurement": "*C5 acylcarnitine", "setting": "[5]; Mean", "value": 1.1}, {"measurement": "*C7 acylcarnitine", "setting": "[5]; Mean", "value": 8.3}, {"measurement": "*C3 acylcarnitine", "setting": "[5]; Minimum", "value": 5.7}, {"measurement": "*C5 acylcarnitine", "setting": "[5]; Minimum", "value": 0.7}, {"measurement": "*C7 acylcarnitine", "setting": "[5]; Minimum", "value": 2.4}, {"measurement": "Propionylcarnitine from odd carbon precursor", "setting": "[5]; MCAD-1 fibroblast cell line", "value": 10.6, "unit": "nmol/mg Protein/72 hours"}, {"measurement": "Propionylcarnitine from odd carbon precursor", "setting": "[5]; MCAD-2 fibroblast cell line", "value": 17.4, "unit": "nmol/mg Protein/72 hours"}, {"measurement": "Propionylcarnitine from oxidation of fatty acid", "setting": "[6]", "value": "22.6 nmol/mg Protein/72 hours and 20.3 nmol/mg Protein/72 hours and 24.3 nmol/mg Protein/72 hours and 14.4 nmol/mg Protein/72 hours"}, {"measurement": "Myristenoylcarnitine Level", "setting": "VLCAD patient; time 0 hours, cis-5-C14:1, marker of lipolysis", "value": 2.61}, {"measurement": "Propionylcarnitine Level", "setting": "VLCAD patient; time 0 hours, enteral meal via gastrostomy", "value": 1.39}, {"measurement": "Myristenoylcarnitine Level", "setting": "VLCAD patient; time 1 hours", "value": 2.83}, {"measurement": "Propionylcarnitine Level", "setting": "VLCAD patient; time 1 hours", "value": 2.89}, {"measurement": "Myristenoylcarnitine Level", "setting": "VLCAD patient; time 2 hours", "value": 1.38}, {"measurement": "Propionylcarnitine Level", "setting": "VLCAD patient; time 2 hours", "value": 3.78}, {"measurement": "Myristenoylcarnitine Level", "setting": "VLCAD patient; time 3 hours", "value": 2.64}, {"measurement": "Propionylcarnitine Level", "setting": "VLCAD patient; time 3 hours", "value": 4.57}, {"measurement": "Clinical or biochemical toxicity", "setting": "VLCAD patient; meal test, 3 hour interval", "value": "no clinical or biochemical toxicity"}, {"measurement": "*C3 acylcarnitine", "setting": "[7]", "value": 16.3}, {"measurement": "*C5 acylcarnitine", "setting": "[7]", "value": 0.9}, {"measurement": "*C7 acylcarnitine", "setting": "[7]", "value": 0.5}, {"measurement": "Propionylcarnitine from oxidation of fatty acid", "setting": "[8]", "value": "24.1 nmol/mg Protein/72 hours and 48.1 nmol/mg Protein/72 hours"}, {"measurement": "Clinical or biochemical toxicity", "setting": "SCAD patient; meal test, 4 hours", "value": "no clinical or biochemical toxicity"}, {"measurement": "Relative Blood Levels of Fatty Acid Chain Lengths: C3", "setting": "SCAD patient; time 0 hours", "value": 3.00}, {"measurement": "Relative Blood Levels of Fatty Acid Chain Lengths: C4 (butyrylcarnitine)", "setting": "SCAD patient; time 0 hours", "value": 0.34}, {"measurement": "Relative Blood Levels of Fatty Acid Chain Lengths: C3", "setting": "SCAD patient; time 1 hours", "value": 2.08}, {"measurement": "Relative Blood Levels of Fatty Acid Chain Lengths: C4 (butyrylcarnitine)", "setting": "SCAD patient; time 1 hours", "value": 0.16}, {"measurement": "Relative Blood Levels of Fatty Acid Chain Lengths: C3", "setting": "SCAD patient; time 2 hours", "value": 2.42}, {"measurement": "Relative Blood Levels of Fatty Acid Chain Lengths: C4 (butyrylcarnitine)", "setting": "SCAD patient; time 2 hours", "value": 0.23}, {"measurement": "Relative Blood Levels of Fatty Acid Chain Lengths: C3", "setting": "SCAD patient; time 3 hours", "value": 3.29}, {"measurement": "Relative Blood Levels of Fatty Acid Chain Lengths: C4 (butyrylcarnitine)", "setting": "SCAD patient; time 3 hours", "value": 0.26}, {"measurement": "Relative Blood Levels of Fatty Acid Chain Lengths: C3", "setting": "SCAD patient; time 4 hours", "value": 2.61}, {"measurement": "Relative Blood Levels of Fatty Acid Chain Lengths: C4 (butyrylcarnitine)", "setting": "SCAD patient; time 4 hours", "value": 0.30}]}
{"smiles": "CCCCCCCCC(=O)O", "note": "[C9, nonanoate, reference compound]", "values": [{"measurement": "*C3 acylcarnitine", "setting": "[4]; CONTROL MEAN, N = 4", "value": 3.9}, {"measurement": "*C5 acylcarnitine", "setting": "[4]; CONTROL MEAN, N = 4", "value": 0.4}, {"measurement": "*C7 acylcarnitine", "setting": "[4]; CONTROL MEAN, N = 4", "value": 0.3}, {"measurement": "*C9 acylcarnitine", "setting": "[4]; CONTROL MEAN, N = 4", "value": 2.0}, {"measurement": "Propionylcarnitine from odd carbon precursor", "setting": "[4]", "value": 3.9, "unit": "nmol/mg Protein/72 hours"}, {"measurement": "*C3 acylcarnitine", "setting": "[5]; Maximum", "value": 5.5}, {"measurement": "*C5 acylcarnitine", "setting": "[5]; Maximum", "value": 0.7}, {"measurement": "*C7 acylcarnitine", "setting": "[5]; Maximum", "value": 4.2}, {"measurement": "*C9 acylcarnitine", "setting": "[5]; Maximum", "value": 10.3}, {"measurement": "*C3 acylcarnitine", "setting": "[5]; Mean", "value": 3.0}, {"measurement": "*C5 acylcarnitine", "setting": "[5]; Mean", "value": 0.5}, {"measurement": "*C7 acylcarnitine", "setting": "[5]; Mean", "value": 2.8}, {"measurement": "*C9 acylcarnitine", "setting": "[5]; Mean", "value": 7.3}, {"measurement": "*C3 acylcarnitine", "setting": "[5]; Minimum", "value": 1.6}, {"measurement": "*C5 acylcarnitine", "setting": "[5]; Minimum", "value": 0.3}, {"measurement": "*C7 acylcarnitine", "setting": "[5]; Minimum", "value": 1.6}, {"measurement": "*C9 acylcarnitine", "setting": "[5]; Minimum", "value": 4.0}, {"measurement": "Propionylcarnitine from odd carbon precursor", "setting": "[5]; MCAD-1 fibroblast cell line", "value": 1.8, "unit": "nmol/mg Protein/72 hours"}, {"measurement": "Propionylcarnitine from odd carbon precursor", "setting": "[5]; MCAD-2 fibroblast cell line", "value": 2.9, "unit": "nmol/mg Protein/72 hours"}, {"measurement": "*C3 acylcarnitine", "setting": "[7]", "value": 6.0}, {"measurement": "*C5 acylcarnitine", "setting": "[7]", "value": 0.4}, {"measurement": "*C7 acylcarnitine", "setting": "[7]", "value": 0.4}, {"measurement": "*C9 acylcarnitine", "setting": "[7]", "value": 3.2}]}
